# Data as given in US20240368203A1, “DEGRADATION OF (EGFR) BY CONJUGATION OF EGFR INHIBITORS WITH E3 LIGASE LIGAND AND METHODS OF USE” (BeiGene, Ltd., priority 2022, published 2024).
# Legend:
# EGFR-Del19/T790M/C797S = experiment: EGFR degradation HTRF assay in H1975-clone #28 cells; format: cell-based; conditions: H1975-clone #28 (Del19/T790M/C797S) cells, 16 h treatment; for DC50: IC50 (DC50), read-out: DC50(nM) H1975 # 28 DTC; for Dmax (%) H1975 # 28 DTC: maximum percentage of inhibition (degradation)
# Experimental: (§1) H1975-clone #28(Del19/T790M/C797S) and H1975-clone #25(L858R/T790M/C797S). EGFR-Del19/T790M/C797S and EGFR-L858R/T790M/C797S were stably expressed in H1975 cell lines by lentivirus-mediated over-expression, respectively. The EGFR over-expressed cells then underwent knockout, in which the EGFR targeting sgRNA was designed to only target the endogenous EGFR copies and preserve the exogenous EGFR copies. Followed by knockout, the edited H1975 cells were seeded in 96 well plates at the concentration of […], cultured for about 2 weeks to allow single clones formation. The formed clones were screened by DNA sequencing and whole exon sequencing analysis for the desired edition.
# (§2) H1975-clone #28, and H1975-clone #25 were finally confirmed as homozygous Del19/T790M/C797S EGFR, and L858R/T790M/C797S EGFR clones, respectively.
# (§3) H1975-#25 and H1975-#28 cells are treated with compounds diluted in 0.2% DMSO cell culture medium on day 2, incubate for 16 h, 37° C., 5% CO2. the final concentration of compounds in all assay is start with 10 uM, 5-fold dilution, total 8 doses were included.
# (§4) After 16 h treatment, add HTRF lysis buffer to each well; seal the plate and incubate 1 hour at room temperature on a plate shaker; Once the cells are lysed, 16 μL of cell lysate are transferred to a PE 384-well HTRF detection plate; 4 μL of pre-mixed HTRF antibodies are added to each well; Cover the plate with a plate sealer, spin 1000 rpm for 1 min, Incubate overnight at room temperature; Read on BMG PheraStar with HTRF protocol (337 nm-665 nm-620 nm).
# (§5) The inhibition (degradation) percentage of the compound was calculated by the following equation:
# (§6) Inhibition percentage of Compound=100−100×(Signal−low control)/(High control−low control),
# (§7) The IC50 (DC50) value of a compound can be obtained by fitting the following equation
# (§8) Wherein, X and Y are known values, and IC50, Hillslope, Top and Bottom are the parameters obtained by fitting with software. Y is the inhibition percentage (calculated from the equation), X is the concentration of the compound; IC50 is the concentration of the compound when the 50% inhibition is reached. The smaller the IC50 value is, the stronger the inhibitory ability of the compound is. Vice versa, the higher the IC50 value is, the weaker the ability the inhibitory ability of the compound is; Hillslope represents the slope of the fitted curve, generally around 1 *; Bottom represents the minimum value of the curve obtained by data fitting, which is generally 0%±20%; Top represents the maximum value of the curve obtained by data fitting, which is generally 100%±20%. The experimental data were fitted by calculating and analyzing with Dotmatics data analysis software.
# EGFR-L858R/T790M/C797S = biological target: T1, EGFR-L858R/T790M/C797S (Homo sapiens, UniProt P00533, C797S/L858R/T790M); experiment: EGFR degradation HTRF assay in H1975-clone #25 cells; format: cell-based; conditions: 16 h treatment; for DC50: H1975-clone #25 (L858R/T790M/C797S) cells, IC50 (DC50), read-out: DC50(nM) H1975 # 25-LTC; for Dmax: NCI-H1975, H1975-clone #25 (L858R/T790M/C797S) cells, maximum percentage of inhibition (degradation), read-out: Dmax (%) H1975 # 25-LTC
# T1 construct: expressed in transfected cells; host or cells: H1975-clone #25 (lentiviral over-expression, endogenous EGFR knocked out)
# T1 sequence (P00533 25-1210 T790M/C797S/L858R): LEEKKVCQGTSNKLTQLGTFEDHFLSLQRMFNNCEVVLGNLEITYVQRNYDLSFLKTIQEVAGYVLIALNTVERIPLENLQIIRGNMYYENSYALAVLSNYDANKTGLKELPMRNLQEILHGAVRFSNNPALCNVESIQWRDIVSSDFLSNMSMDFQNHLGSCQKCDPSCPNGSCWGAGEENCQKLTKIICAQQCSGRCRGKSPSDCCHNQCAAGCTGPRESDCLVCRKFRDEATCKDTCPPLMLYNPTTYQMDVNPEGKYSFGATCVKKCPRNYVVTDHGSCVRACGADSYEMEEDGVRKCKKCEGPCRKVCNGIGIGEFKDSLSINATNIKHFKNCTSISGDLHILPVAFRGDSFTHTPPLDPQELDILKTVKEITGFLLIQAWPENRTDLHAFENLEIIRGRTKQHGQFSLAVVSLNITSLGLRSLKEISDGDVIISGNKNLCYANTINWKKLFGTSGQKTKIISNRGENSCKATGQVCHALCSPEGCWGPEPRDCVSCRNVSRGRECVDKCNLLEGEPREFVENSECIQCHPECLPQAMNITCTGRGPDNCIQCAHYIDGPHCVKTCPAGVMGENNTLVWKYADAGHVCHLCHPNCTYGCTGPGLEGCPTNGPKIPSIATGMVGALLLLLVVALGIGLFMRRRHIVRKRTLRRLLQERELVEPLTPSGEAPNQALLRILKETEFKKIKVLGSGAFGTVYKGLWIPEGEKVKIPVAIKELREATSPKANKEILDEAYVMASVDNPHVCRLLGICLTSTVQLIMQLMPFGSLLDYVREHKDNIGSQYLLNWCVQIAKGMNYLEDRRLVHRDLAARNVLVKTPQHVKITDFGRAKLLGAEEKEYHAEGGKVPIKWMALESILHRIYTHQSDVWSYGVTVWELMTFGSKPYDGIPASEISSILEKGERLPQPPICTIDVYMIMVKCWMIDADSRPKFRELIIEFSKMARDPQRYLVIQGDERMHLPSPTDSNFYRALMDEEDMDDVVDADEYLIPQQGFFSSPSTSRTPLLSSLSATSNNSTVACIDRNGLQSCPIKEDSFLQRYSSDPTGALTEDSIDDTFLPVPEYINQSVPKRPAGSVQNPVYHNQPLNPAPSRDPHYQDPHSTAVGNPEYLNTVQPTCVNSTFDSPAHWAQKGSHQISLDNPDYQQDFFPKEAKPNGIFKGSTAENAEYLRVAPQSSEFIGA
# Experimental: as §1, §2, §3, §4, §5, §6, §7, §8
Structure (SMILES),DC50 (EGFR-Del19/T790M/C797S) [nM],Dmax (%) H1975 # 28 DTC (EGFR-Del19/T790M/C797S) [%],DC50 (EGFR-L858R/T790M/C797S) [nM],Dmax (EGFR-L858R/T790M/C797S) [%]
"CCc1cc(Nc2ncc(Br)c(Nc3ccc4nc(C)c(F)cc4c3P(C)(C)=O)n2)c(OC)cc1N1CCC2(CCN(CCN(C)c3cc(F)c([C@H]4CCC(=O)NC4=O)c(F)c3)CC2)CC1 [Example 44, (R)-3-(4-((2-(9-(4-((5-bromo-4-((5-(dimethylphosphoryl)-3-fluoro-2-methylquinolin-6-yl)amino)pyrimidin-2-yl)amino)-2-ethyl-5-methoxyphenyl)-3,9-diazaspiro[5.5]undecan-3-yl)ethyl)(methyl)amino)-2,6-difluorophenyl)piperidine-2,6-dione]",3.5,90,4.2,92
"CCOc1cc(N2CCC(N3CCC4(CC3)CN(c3cc(F)c([C@H]5CCC(=O)NC5=O)c(F)c3)C4)CC2)c(CC)cc1Nc1ncc(Cl)c(Nc2ccc3nc(C)c(F)cc3c2P(C)(C)=O)n1 [Example 57, (R)-3-(4-(7-(1-(4-((5-chloro-4-((5-(dimethylphosphoryl)-3-fluoro-2-methylquinolin-6-yl)amino)pyrimidin-2-yl)amino)-5-ethoxy-2-ethylphenyl)piperidin-4-yl)-2,7-diazaspiro[3.5]nonan-2-yl)-2,6-difluorophenyl)piperidine-2,6-dione]",4.5,88,2.7,90
"CCc1cc(Nc2ncc(Br)c(Nc3ccc4nc(C)c(F)cc4c3P(C)(C)=O)n2)c(OC)cc1N1CCC2(CCN(C(=O)CN3CCC(c4ccc(NC5CCC(=O)NC5=O)cc4)CC3)CC2)CC1 (single isomer, unassigned) [Example 29, 3-((4-(1-(2-(9-(4-((5-bromo-4-((5-(dimethylphosphoryl)-3-fluoro-2-methylquinolin-6-yl)amino)pyrimidin-2-yl)amino)-2-ethyl-5-methoxyphenyl)-3,9-diazaspiro[5.5]undecan-3-yl)-2-oxoethyl)piperidin-4-yl)phenyl)amino)piperidine-2,6-dione]",3.1,88,3.8,96
"CCc1cc(Nc2ncc(Br)c(Nc3ccc4nc(C)c(F)cc4c3P(C)(C)=O)n2)c(OC)cc1N1CCC2(CC1)CN(C1CCN(c3cc(F)c([C@H]4CCC(=O)NC4=O)c(F)c3)CC1)C2 [Example 62, (R)-3-(4-(4-(7-(4-((5-bromo-4-((5-(dimethylphosphoryl)-3-fluoro-2-methylquinolin-6-yl)amino)pyrimidin-2-yl)amino)-2-ethyl-5-methoxyphenyl)-2,7-diazaspiro[3.5]nonan-2-yl)piperidin-1-yl)-2,6-difluorophenyl)piperidine-2,6-dione]",1.4,89,1.6,95
"CCc1cc(Nc2ncc(Br)c(Nc3ccc4nc(C)c(F)cc4c3P(C)(C)=O)n2)c(OC)cc1N1CCC2(CC1)CCN(C1CCN(c3cccc4c3C(C)(C)C(=O)N4C3CCC(=O)NC3=O)CC1)CC2 (stereo not drawn) [Example 52, 3-(4-(4-(9-(4-((5-bromo-4-((5-(dimethylphosphoryl)-3-fluoro-2-methylquinolin-6-yl)amino)pyrimidin-2-yl)amino)-2-ethyl-5-methoxyphenyl)-3,9-diazaspiro[5.5]undecan-3-yl)piperidin-1-yl)-3,3-dimethyl-2-oxoindolin-1-yl)piperidine-2,6-dione]",3.4,79,3.8,90
"CCc1ccc2c(P(C)(C)=O)c(Nc3nc(Nc4cc(CC)c(N5CCC(N6CCN(C7CN(c8cccc9c8n(C)c(=O)n9C8CCC(=O)NC8=O)C7)CC6)CC5)cc4OC)ncc3Br)ccc2n1 (stereo not drawn) [Example 21, 3-(4-(3-(4-(1-(4-((5-bromo-4-((5-(dimethylphosphoryl)-2-ethylquinolin-6-yl)amino)pyrimidin-2-yl)amino)-2-ethyl-5-methoxyphenyl)piperidin-4-yl)piperazin-1-yl)azetidin-1-yl)-3-methyl-2-oxo-2,3-dihydro-1H-benzol[d]imidazol-1-yl)piperidine-2,6-dione]",0.6,77,1.8,78
"CCc1ncc2c(P(C)(C)=O)c(Nc3nc(Nc4cc(CC)c(N5CCC(N6CCC7(CCN(c8cc(F)c([C@H]9CCC(=O)NC9=O)c(F)c8)CC7)CC6)CC5)cc4OC)ncc3Br)ccc2n1 (single isomer, unassigned) [Example 4]",1.5,87,2.5,84
"CCc1ncc2c(P(C)(C)=O)c(Nc3nc(Nc4cc(CC)c(N5CCC(N6CC(N7CCC(c8cc(F)c([C@H]9CCC(=O)NC9=O)c(F)c8)CC7)C6)CC5)cc4OC)ncc3Br)ccc2n1 [Example 13, (R)-3-(4-(1-(1-(1-(4-((5-bromo-4-((5-(dimethylphosphoryl)-2-ethylquinazolin-6-yl)amino)pyrimidin-2-yl)amino)-2-ethyl-5-methoxyphenyl)piperidin-4-yl)azetidin-3-yl)piperidin-4-yl)-2,6-difluorophenyl)piperidine-2,6-dione]",0.7,92,1.8,94
"CCc1cc(Nc2ncc(Br)c(Nc3ccc4nc(C)c(F)cc4c3P(C)(C)=O)n2)c(OC)cc1N1CCC(N2CCN(C(=O)C3CN(c4ccc(F)c5c4n(C)c(=O)n5[C@H]4CCC(=O)NC4=O)C3)CC2)CC1 [Example 24, (S)-3-(4-(3-(4-(1-(4-((5-bromo-4-((5-(dimethylphosphoryl)-3-fluoro-2-methylquinolin-6-yl)amino)pyrimidin-2-yl)amino)-2-ethyl-5-methoxyphenyl)piperidin-4-yl)piperazine-1-carbonyl)azetidin-1-yl)-7-fluoro-3-methyl-2-oxo-2,3-dihydro-1H-benzo[d]imidazol-1-yl)piperidine-2,6-dione]",0.6,87,1.4,88
"CCc1cc(Nc2ncc(Br)c(Nc3ccc4nc(C)c(F)cc4c3P(C)(C)=O)n2)c(OC)cc1N1CCC2(CC1)CCN(C1CCN(c3cc(F)c([C@H]4CCC(=O)NC4=O)c(F)c3)CC1)CC2 [Example 1, (R)-3-(4-(4-(9-(4-((5-bromo-4-((5-(dimethylphosphoryl)-3-fluoro-2-methylquinolin-6-yl)amino)pyrimidin-2-yl)amino)-2-ethyl-5-methoxyphenyl)-3,9-diazaspiro[5.5]undecan-3-yl)piperidin-1-yl)-2,6-difluorophenyl)piperidine-2,6-dione]",2.2,89,3.4,92
"CCc1ccc2c(P(C)(C)=O)c(Nc3nc(Nc4cc(CC)c(N5CCC(N6CC(N7CCC(c8cc(F)c([C@H]9CCC(=O)NC9=O)c(F)c8)CC7)C6)CC5)cc4OC)ncc3Br)ccc2n1 [Example 14, (R)-3-(4-(1-(1-(1-(4-((5-bromo-4-((5-(dimethylphosphoryl)-2-ethylquinolin-6-yl)amino)pyrimidin-2-yl)amino)-2-ethyl-5-methoxyphenyl)piperidin-4-yl)azetidin-3-yl)piperidin-4-yl)-2,6-difluorophenyl)piperidine-2,6-dione]",1.9,89,2.1,91
"CCc1cc(Nc2ncc(Br)c(Nc3ccc4nc(C)c(F)cc4c3P(C)(C)=O)n2)c(OC)cc1N1CCC2(CCN(CCNc3cc(F)c([C@H]4CCC(=O)NC4=O)c(F)c3)CC2)CC1 (single isomer, unassigned) [Example 43]",3.7,87,4.6,90
